According to patent US4992570A, “UCN-1028A and UCN-1028C and process for the production thereof” (Kyowa Hakko Kogyo Co., Ltd., priority 1987, dated 1991):
Converted amounts (≈) assume the structure as drawn. Like-named read-outs stand apart in the source and are kept apart here.

Experiments:
Protein Kinase C = assay: Protein kinase C inhibitory activity (method of Kikkawa et al.); format: biochemical, rat; conditions: for IC50 Protein Kinase C: crude enzyme partially purified from rat brain, [γ-32P]ATP, Histone Type IIS, 30° C., 3 minutes; for selective inhibitory activity on protein kinase C, as compared with Phleichrome: statement on Table 1 (protein kinase C vs protein kinase A)
Protocol: Protein kinase C inhibitory activity was measured by the method of Kikkawa, et al. [Journal of Biological Chemistry, 257, 13341 (1982)].
That is, 10 μl of a test solution containing UCN-1028A, UCN-1028C or Phleichrome was added to 250 μl of a solution containing 2.5 μmoles of magnesium acetate, 50 μg of Histone Type IIS (manufactured by Sigma Co., Ltd.), 20 μg of phosphatidyl serine, 0.8 μg of diolein, 25 nmoles of CaCl2, 5 μg of crude enzyme (partially purified from rat brain according to the method of Kikkawa, et al.) and 5 μmoles of Tris-hydrochloride buffer (H 7.5), followed by incubation at 30° C. for 3 minutes. Then, phosphorylation was initiated by addition of 1.25 nmoles of [γ-^32 P]ATP (5 to 10×10^3 cpm/nmole), followed by incubation at 30° C. for 3 minutes. The reaction was stopped by adding 25% trichloroacetic acid (TCA), and the reaction solution was filtered through a cellulose acetate membrane (pore size of 0.45 μm) (manufactured by Toyo Filter Paper Co., Ltd.). After the membrane was washed four times with 5% TCA, radioactivity remaining on the membrane was measured. As a control, the same procedure as above was repeated without addition of the test solution and radioactivity was likewise measured. A concentration of the test solution showing 50% inhibition as compared with the control was expressed as IC50.

Protein Kinase A = biological target: T1, Protein Kinase A (Bos taurus, UniProt P00517); assay: Protein kinase A inhibitory activity (method of Kuo et al.); format: biochemical, calf
T1 construct: partially purified from calf heart; from tissue; host or cells: calf heart (crude enzyme, partially purified by the method of Kuo et al.)
Protocol: Protein kinase A inhibitory activity was measured according to the method of Kuo, et al. [Biochemistry, 64, […].
That is, 10 μl of a test solution was added to 250 μl of a solution containing 5 μmoles of Tris-hydrochloride buffer (pH 6.8), 2.5 μmoles of magnesium acetate, 100 μg of Histone Type IIS (manufactured by Sigma Co., Ltd.), 0.25 nmoles of C-AMP and 200 μg of crude enzyme (partially purified from calf heart according to the method of Kuo, et al.). Subsequent procedures were conducted in a manner similar to the case of measuring protein kinase C inhibitory activity described above to determine IC^50.

MCF 7 cells = assay: Anti-tumor activity: growth inhibition of MCF 7 cells (Neutral Red); format: cell-based; conditions: Homo sapiens
Protocol: (§1) MCF 7 cells (4.5×10^4 cells/ml) prepared in a medium comprising RPMI 1640 medium (manufactured by Gibco Co., Ltd.), 10% fetal calf serum, 10 μg/ml insulin and 10^-8 M estradiol (hereinafter referred to as medium A) were put into wells of a 96 well microtiter plate in the amount of 0.1 m(per each well. After culturing at 37° C for 20 hours in a carbon dioxide gas incubator, each test solution appropriately diluted with medium A (0.05 ml) was added thereto. Then, culturing was carried out at 37° C. for an hour in the carbon dioxide gas incubator, and the culture supernatant was removed. After the residue was washed once with […] (composition: 8 g/l NaCl, 0.2 g/l KCl, 1.5 g/l Na2 HPO4 and 0.2 g/l KH2 PO4), 0.1 ml of fresh medium A was added thereto, followed by culturing at 37° C. for 72 hours in the carbon dioxide gas incubator. Then, the culture supernatant was removed and 0.1 ml of a medium comprising medium A and 0.02% Neutral Red was added to the residue, followed by culturing at 37° C. for one hour in the carbon dioxide gas incubator, thereby staining the cells. After removal of the culture supernatant, the residue was washed once with physiological saline. Then, the pigment was extracted with 0.001 N hydrochloric acid/30% ethanol and absorbency at 550 nm was measured with a microplate reader. By comparing the absorbency of intact cells with that of the cells treated with a test solution having a known concentration, a concentration of the test solution which inhibited 50% of growth of the cells (IC50) was calculated.

HelaS3 cells = assay: Anti-tumor activity: growth inhibition of HelaS3 cells (Neutral Red); format: cell-based; conditions: Homo sapiens
Protocol: as §1
HelaS3 cells (3×10^4 cells/ml) prepared in a medium comprising MEM medium (manufactured by Nissui Pharmaceutical Co., Ltd.) and 2 mM glutamine were put into wells of a 96 well microtiter plate in the amount of 0.1 ml per each well. In a manner similar to the case of MCF 7 cells described above, IC^50 was calculated.

[1] = MCF7, 1 hour exposure, then 72 hours culture at 37° C., Neutral Red, 550 nm, read-out: IC50 MCF 7 cells
[2] = HeLa S3, similar to MCF 7 cells, MEM medium, 2 mM glutamine, read-out: IC50 HelaS3 cells

| SMILES | IC50 Protein Kinase C (Protein Kinase C) | IC50 (Protein Kinase A) | IC50 (MCF 7 cells; [1]) | IC50 (HelaS3 cells; [2]) | selective inhibitory activity on protein kinase C, as compared with Phleichrome (Protein Kinase C) | Solubility in acetone (Solubility) | Solubility in alkaline water (Solubility) | Solubility in chloroform (Solubility) | Solubility in ethyl acetate (Solubility) | Solubility in methanol (Solubility) | Solubility in n-hexane (Solubility; n-hexane) | Solubility in water (Solubility) | IC50 (Protein Kinase A; crude enzyme partially purified from calf heart, Histone Type IIS, C-AMP, pH 6.8, read-out: IC50 Protein Kinase A) | IC50 (MCF 7 cells; MCF7, read-out: IC50 MCF 7 cells) | IC50 (HelaS3 cells; HeLa S3, read-out: IC50 HelaS3 cells) | Solubility in DMSO (Solubility; DMSO) |
| --- | --- | --- | --- | --- | --- | --- | --- | --- | --- | --- | --- | --- | --- | --- | --- | --- |
| COc1c(CC(C)O)c2c3c(CC(C)O)c(OC)c(=O)c4c(O)cc(OC)c(c5c(OC)cc(O)c(c1=O)c52)c43 (stereo not shown) [Phleichrome, reference compound] | 5.5 µg/mL (≈ 9.99 µM) | 59.9 µM | 0.7 µg/mL (≈ 1.27 µM) | 0.61 µg/mL (≈ 1.11 µM) |  |  |  |  |  |  |  |  |  |  |  |  |
| COc1c(CC(C)OC(=O)c2ccccc2)c2c3c(CC(C)OC(=O)c4ccccc4)c(OC)c(=O)c4c(O)cc(OC)c(c5c(OC)cc(O)c(c1=O)c52)c43 (stereo not shown) [UCN-1028A] | 0.19 µg/mL (≈ 0.25 µM) | > 52.7 µM | 0.21 µg/mL (≈ 0.277 µM) | 0.29 µg/mL (≈ 0.382 µM) | selective inhibitory activity on protein kinase C | soluble | soluble | readily soluble | readily soluble | soluble | soluble | insoluble |  |  |  |  |
| COc1c(CC(C)OC(=O)Oc2ccc(O)cc2)c2c3c(CC(C)OC(=O)c4ccccc4)c(OC)c(=O)c4c(O)cc(OC)c(c5c(OC)cc(O)c(c1=O)c52)c43 (stereo not shown) [UCN-1028C] | 0.07 µg/mL (≈ 0.0885 µM) |  |  |  | selective inhibitory activity on protein kinase C | soluble | soluble | soluble | soluble | readily soluble |  | insoluble | > 50.6 µM | 0.18 µg/mL (≈ 0.228 µM) | 0.19 µg/mL (≈ 0.24 µM) | readily soluble |
